Experimental data from US9440960B2, “Substituted oxetanes and their use as inhibitors of cathepsin C” (Boehringer Ingelheim International GmbH, priority 2014, dated 2016).

Target: T1, recombinant human DPPI (Cathepsin C) (Homo sapiens, UniProt P53634)
T1 construct: purchased Prozymex
Assay: Inhibition of Human DPPI (Cathepsin C)
Type: biochemical
Conditions: substrate Gly-Arg-AMC 50 μM, MES buffer pH 6.0, 30 min at room temperature, fluorescence readout
Text: Inhibition of Human DPPI (Cathepsin C)
Materials: Microtiterplates (Optiplate-384 F) were purchased from PerkinElmer (Prod.No. 10 6007270). The substrate Gly-Arg-AMC was from Biotrend (Prod.-No. 808756 Custom peptide).
Bovine serum albumin (BSA; Prod.No. A3059) and Dithiothreitol (DTT; Prod.No D0632) were from Sigma. TagZyme buffer was from Riedel-de-Haen (Prod.-No. 04269), NaCl was from Merck (Prod.-No. 1.06404.1000) and morpholinoethane sulfonic acid (MES), was from Serva (Prod.-No.
29834). The DPP1 inhibitor Gly-Phe-DMK was purchased from MP Biomedicals 15 (Prod.-No. 03DK00625). The recombinant human DPPI was purchased from Prozymex. All other materials were of highest grade commercially available.
The following buffers were used: MES buffer: 25 mM MES, 50 mM NaCl, 5 mM DTT, adjusted to pH 6.0, containing 0.1% BSA; TAGZyme Buffer: 20 mM NaH2PO4, 150 mM NaCl adjusted to pH […]
Assay conditions: The recombinant human DPPI was diluted in TAGZyme buffer to 1 U/ml (38.1 μg/ml, respectively), and then activated by mixing in a 1:2 ratio with a Cysteamine aqueous solution (2 mM) and incubating for 5 min at room temperature.
Five uL test compound (final concentration 0.1 nM to 100 μM) in aqua bidest 5 (containing 4% DMSO, final DMSO concentration 1%) were mixed with 10 μL of DPPI in MES buffer (final concentration 0.0125 ng/μL) and incubated for 10 min. Then, 5 μL of substrate in MES buffer (final concentration 50 μM) were added. The microtiter plates were then incubated at room temperature for 30 min. Then, the reaction was stopped by adding 10 μL of Gly-Phe-DMK in 10 MES-buffer (final concentration 1 μM). The fluorescence in the wells was determined using a Molecular Devices SpectraMax M5 Fluorescence Reader (Ex 360 nm, Em 460 nm) or an Envision Fluorescence Reader (Ex 355 nm, Em 460 nm).
Each assay microtiter plate contained wells with vehicle controls (1% DMSO in bidest+0.075% 15 BSA) as reference for non-inhibited enzyme activity (100% Ctl; high values) and wells with inhibitor (Gly-Phe-DMK, in bidest+1% DMSO+0.075% BSA, final concentration 1 μM) as controls for background fluorescence (0% Ctl; low values).
The analysis of the data was performed by calculating the percentage of fluorescence in the presence of test compound in comparison to the fluorescence of the vehicle control after 20 subtracting the background fluorescence using the following formula: (RFU(sample)−RFU(background))*100/(RFU(control)−RFU(background)) […]
Data from these calculations were used to generate IC50 values for inhibition of DPPI, respectively.

T1 sequence (P53634 231-394 limits assumed): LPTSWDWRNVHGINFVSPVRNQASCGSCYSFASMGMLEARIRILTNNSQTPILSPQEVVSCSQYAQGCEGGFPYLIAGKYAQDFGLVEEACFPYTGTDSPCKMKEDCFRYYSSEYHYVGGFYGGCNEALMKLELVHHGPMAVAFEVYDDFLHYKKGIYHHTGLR
T1 sequence (P53634 395-463 limits assumed): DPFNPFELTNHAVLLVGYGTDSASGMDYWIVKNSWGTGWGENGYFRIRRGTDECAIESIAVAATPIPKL
T1 sequence (P53634 25-143 limits assumed): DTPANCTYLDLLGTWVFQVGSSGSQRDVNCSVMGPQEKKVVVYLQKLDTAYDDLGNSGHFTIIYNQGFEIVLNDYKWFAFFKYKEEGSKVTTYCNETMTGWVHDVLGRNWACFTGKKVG

Row | IC50 | Structure (SMILES)
1 | 11.7 nM | N#C[C@H](Cc1ccc(N2CCN(C3COC3)CC2)cc1F)NC(=O)[C@H]1N[C@@H]2CC[C@H]1C2 [Example 1, (1S,2S,4R)—N-[(1S)-1-cyano-2-[2-fluoro-4-[4-(oxetan-3-yl)piperazin-1-yl]phenyl]ethyl]-3-azabicyclo[2.2.1]heptane-2-carboxamide]
2 | 14.4 nM | N#C[C@H](Cc1ccc(N2C3CCC2CN(C2COC2)C3)cc1F)NC(=O)[C@H]1N[C@@H]2CC[C@H]1C2 [Example 2]
3 | 21.6 nM | N#C[C@H](Cc1ccc(N2CC3(C2)CN(C2COC2)C3)cc1F)NC(=O)[C@H]1N[C@@H]2CC[C@H]1C2 [Example 3]
4 | 5.6 nM | N#C[C@H](Cc1ccc(C2=CCN(C3COC3)CC2)cc1F)NC(=O)[C@H]1N[C@@H]2CC[C@H]1C2 [Example 4, (1S,2S,4R)—N-[(1S)-1-cyano-2-[2-fluoro-4-[1-(oxetan-3-yl)-3,6-dihydro-2H-pyridin-4-yl]phenyl]ethyl]-3-azabicyclo[2.2.1]heptane-2-carboxamide]
5 | 16.5 nM | N#C[C@H](Cc1ccc(N2CC3CN(C4COC4)CC3C2)cc1F)NC(=O)[C@H]1N[C@@H]2CC[C@H]1C2 (stereo partly drawn) [Example 5, (1S,2S,4R)—N-[(1S)-1-cyano-2-[2-fluoro-4-[5-(oxetan-3-yl)-1,3,3a,4,6,6a-hexahydropyrrolo[3,4-c]pyrrol-2-yl]phenyl]ethyl]-3-azabicyclo[2.2.1]heptane-2-carboxamide]
6 | 13.5 nM | N#C[C@H](Cc1ccc(N2CC3CCN(C4COC4)C3C2)cc1F)NC(=O)[C@H]1N[C@@H]2CC[C@H]1C2 (stereo partly drawn) [Example 6]
7 | 9.9 nM | N#C[C@H](Cc1ccc(N2CCC3CN(C4COC4)CC32)cc1F)NC(=O)[C@H]1N[C@@H]2CC[C@H]1C2 (stereo partly drawn) [Example 7]
8 | 35.5 nM | N#C[C@H](Cc1ccc(N2CCC3C2CCN3C2COC2)cc1F)NC(=O)[C@H]1N[C@@H]2CC[C@H]1C2 (stereo partly drawn) [Example 8]
9 | 17.6 nM | N#C[C@H](Cc1ccc(N2CCC3C2CCN3C2COC2)cc1F)NC(=O)[C@H]1N[C@@H]2CC[C@H]1C2 (stereo partly drawn) [Example 9]
10 | 60.1 nM | N#C[C@H](Cc1ccc(C2CCN(C3COC3)CC2)cc1F)NC(=O)[C@H]1N[C@@H]2CC[C@H]1C2 [Example 10, (1S,2S,4R)—N-[(1S)-1-cyano-2-[2-fluoro-4-[1-(oxetan-3-yl)-4-piperidyl]phenyl]ethyl]-3-azabicyclo[2.2.1]heptane-2-carboxamide]
11 | 52.7 nM | N#C[C@H](Cc1ccc(C2CCCN(C3COC3)C2)cc1F)NC(=O)[C@H]1N[C@@H]2CC[C@H]1C2 (stereo partly drawn) [Example 11]
12 | 29.4 nM | N#C[C@H](Cc1ccc(C2CCN(C3COC3)C2)cc1F)NC(=O)[C@H]1N[C@@H]2CC[C@H]1C2 (stereo partly drawn) [Example 12]
13 | 79.7 nM | N#C[C@H](Cc1ccc(C2CC3CN(C4COC4)CC3C2)cc1F)NC(=O)[C@H]1N[C@@H]2CC[C@H]1C2 (stereo partly drawn) [Example 13]
14 | 29.3 nM | N#C[C@H](Cc1ccc(C2CC3CN(C4COC4)CC3C2)cc1F)NC(=O)[C@H]1N[C@@H]2CC[C@H]1C2 (stereo partly drawn) [Example 14]
15 | 66.5 nM | N#C[C@H](Cc1ccc(N2CCN(C3COC3)CC2)cc1F)NC(=O)C12CCC(CC1)CN2 [Example 15, N-[(1S)-1-cyano-2-[2-fluoro-4-[4-(oxetan-3-yl)piperazin-1-yl]phenyl]ethyl]-2-azabicyclo[2.2.2]octane-1-carboxamide]
